Results as given in ChEMBL document CHEMBL1201862, “PubChem BioAssay data set” (2004).
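Five compound concentrations were applied to cells in 96-well plates for 48 hours; endpoints were derived by simple linear interpolation of the resulting dose-response curve. The concentration for 50% growth inhibition is given as GI50.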 The source made the active and inactive calls. No stated cut-off is given here; in the data, active = GI50 up to about 1.1 µM and inactive = higher.

How the values were obtained:
Assay in all cases: inhibition of tumour cell growth, NCI panel, 48 h
[1] = test system: ACHN
[2] = test system: SW-620
[3] = test system: T47D
[4] = test system: OVCAR-3
[5] = test system: SF-268
[6] = test system: RXF 393
[7] = test system: NCI/ADR-RES
[8] = test system: SR
[9] = test system: SF-295
[10] = test system: HCT-116
[11] = test system: CCRF-CEM
[12] = test system: MCF7
[13] = test system: SK-MEL-2
[14] = test system: KM12
[15] = test system: LOX IMVI
[16] = test system: PC-3
[17] = test system: MDA-N
[18] = test system: OVCAR-4
[19] = test system: UO-31

SMILES | GI50 [1] | GI50 [2] | GI50 [3] | GI50 [4] | GI50 [5] | GI50 [6] | GI50 [7] | GI50 [8] | GI50 [9] | GI50 [10] | GI50 [11] | GI50 [12] | GI50 [13] | GI50 [14] | GI50 [15] | GI50 [16] | GI50 [17] | GI50 [18] | GI50 [19]
COC(=O)n1c(=O)nc2c3c(ncn21)Oc1c(c(-c2ccccc2)nn1-c1ccccc1)C3c1ccc(Cl)cc1 (stereo not given) | 1.82 µM (inactive) | 1.69 µM (inactive) | 1.71 µM (inactive) | 1.42 µM (inactive) | 1.3 µM (inactive) | 1.63 µM (inactive) | 1.46 µM (inactive) | 1.82 µM (inactive) | 1.67 µM (inactive) | 1.01 µM (active) | 1.5 µM (inactive) | 1.69 µM (inactive) | 1.7 µM (inactive) | 1.37 µM (inactive) | 1.48 µM (inactive) | 1.59 µM (inactive) | 1.66 µM (inactive) | 2.39 µM (inactive) | 1.68 µM (inactive)
COc1cccc2c1Cc1cc(-c3ccccc3)[n+](C)n1-2 | 19.2 µM (inactive) | 6.1 µM (inactive) | 3.4 µM (inactive) | 2.92 µM (inactive) | 19.9 µM (inactive) | 19 µM (inactive) | 84.7 µM (inactive) | 7.57 µM (inactive) | 20.3 µM (inactive) | 3.5 µM (inactive) | 3.37 µM (inactive) | 2.3 µM (inactive) | 17.5 µM (inactive) | 11.5 µM (inactive) | 10 µM (inactive) | 11.4 µM (inactive) | 11.9 µM (inactive) | 3.19 µM (inactive) | 22.5 µM (inactive)
O=C(O)c1ccccc1CC(Cc1ccccc1)C(=O)O (stereo not given) | > 100 µM (inactive) | > 100 µM (inactive) | > 100 µM (inactive) | > 100 µM (inactive) | 97.1 µM (inactive) | > 100 µM (inactive) | > 100 µM (inactive) | > 100 µM (inactive) | > 100 µM (inactive) | > 100 µM (inactive) | > 100 µM (inactive) | > 10 µM (inactive) | > 100 µM (inactive) | > 100 µM (inactive) | > 100 µM (inactive) | > 100 µM (inactive) | > 100 µM (inactive) | > 100 µM (inactive) | > 100 µM (inactive)
C(=N\c1ccc(-c2nc3ccccc3[nH]2)cc1)/c1ccco1 | > 100 µM (inactive) | 89.1 µM (inactive) | 38.5 µM (inactive) | 91.4 µM (inactive) | > 100 µM (inactive) | 73.8 µM (inactive) | 84.9 µM (inactive) | 37.2 µM (inactive) |  | 57.3 µM (inactive) | 16.5 µM (inactive) | 21.1 µM (inactive) | 67.8 µM (inactive) | 48.6 µM (inactive) | 67 µM (inactive) | 33.6 µM (inactive) | 48.1 µM (inactive) | 70 µM (inactive) | 75.7 µM (inactive)
CC(=O)Nc1n[n+]([O-])c2cc(C)ccc2[n+]1[O-] | 2.33 µM (inactive) | 2.41 µM (inactive) | 2.34 µM (inactive) | 2.4 µM (inactive) | 3.57 µM (inactive) | 5.75 µM (inactive) | 5.79 µM (inactive) | 2.56 µM (inactive) | 2.5 µM (inactive) | 2.08 µM (inactive) | 2.05 µM (inactive) | 0.296 µM (active) | 3.81 µM (inactive) | 3.68 µM (inactive) | 2.4 µM (inactive) | 1.81 µM (inactive) | 3.56 µM (inactive) | 4.38 µM (inactive) | 3.38 µM (inactive)
CC(=O)Nc1ncc2c(n1)-c1ccccc1OC2 | 54.3 µM (inactive) | > 100 µM (inactive) | > 100 µM (inactive) | > 100 µM (inactive) | 80.7 µM (inactive) | > 100 µM (inactive) | > 100 µM (inactive) | > 100 µM (inactive) | > 100 µM (inactive) | > 100 µM (inactive) | > 100 µM (inactive) | > 100 µM (inactive) | > 100 µM (inactive) | > 100 µM (inactive) | > 100 µM (inactive) | > 100 µM (inactive) | > 100 µM (inactive) | > 100 µM (inactive) | > 100 µM (inactive)
CCC(NC1=NCCO1)c1cccs1 (stereo not given) | 15.9 µM (inactive) | 24.3 µM (inactive) | 16.4 µM (inactive) | 16.9 µM (inactive) |  | 19 µM (inactive) | 43.1 µM (inactive) | 25.8 µM (inactive) | 15.1 µM (inactive) | 14.1 µM (inactive) | 7.36 µM (inactive) | 15.6 µM (inactive) | 15.5 µM (inactive) | 18 µM (inactive) | 23.7 µM (inactive) | 13.4 µM (inactive) | 14.6 µM (inactive) | 23.9 µM (inactive) | 18.7 µM (inactive)
O=C(O)CC1OCC=C2C[N+]3([O-])CCC45c6ccccc6NC4C1C2CC53 (stereo not given) | > 100 µM (inactive) | > 100 µM (inactive) | > 100 µM (inactive) | > 100 µM (inactive) | > 100 µM (inactive) | > 100 µM (inactive) | > 100 µM (inactive) | > 100 µM (inactive) | > 100 µM (inactive) | > 100 µM (inactive) |  | > 100 µM (inactive) | 17.7 µM (inactive) | > 100 µM (inactive) | > 100 µM (inactive) | > 100 µM (inactive) | > 100 µM (inactive) | > 100 µM (inactive) | > 100 µM (inactive)
CCOC(=O)CC1c2ccc(O)cc2OC(=O)C1c1ccc([N+](=O)[O-])cc1 (stereo not given) | 25.2 µM (inactive) | 65.6 µM (inactive) | 15.8 µM (inactive) | 28.8 µM (inactive) | 40 µM (inactive) | 16.9 µM (inactive) | 27 µM (inactive) | 31.8 µM (inactive) | 38.4 µM (inactive) | 22.5 µM (inactive) | 22.8 µM (inactive) | 14.8 µM (inactive) | 17 µM (inactive) | 34.3 µM (inactive) | 40.7 µM (inactive) | 22.5 µM (inactive) | 28.6 µM (inactive) | 27.7 µM (inactive) | 
Nc1cc([N+](=O)[O-])ccc1C(=O)N1CCC[C@H]1CO | > 100 µM (inactive) | > 100 µM (inactive) | 90.4 µM (inactive) |  | > 100 µM (inactive) | > 100 µM (inactive) | > 100 µM (inactive) | > 100 µM (inactive) | > 100 µM (inactive) | > 100 µM (inactive) | > 100 µM (inactive) | > 100 µM (inactive) | > 100 µM (inactive) | > 100 µM (inactive) | > 100 µM (inactive) | > 100 µM (inactive) | > 100 µM (inactive) | > 100 µM (inactive) | > 100 µM (inactive)
OC1(C2(c3ccc(Cl)cc3)CCCC2)c2ccccc2C2=NCCN21 (stereo not given) | 16.7 µM (inactive) | 22.8 µM (inactive) | 6.43 µM (inactive) | 16.4 µM (inactive) | 17.5 µM (inactive) | 1.68 µM (inactive) | 17.1 µM (inactive) | 18.1 µM (inactive) | 16.5 µM (inactive) | 11.7 µM (inactive) | 14.4 µM (inactive) | 17.5 µM (inactive) |  | 18.1 µM (inactive) | 14.4 µM (inactive) | 11.9 µM (inactive) | 16.1 µM (inactive) | 12.9 µM (inactive) | 11.7 µM (inactive)
COc1ccc(C2SC(C)C(=O)N2c2nc(-c3nc(-c4ccc(Cl)cc4)cs3)cs2)cc1 (stereo not given) | > 100 µM (inactive) | > 100 µM (inactive) | 46.1 µM (inactive) | > 100 µM (inactive) | > 100 µM (inactive) | > 100 µM (inactive) | > 100 µM (inactive) | > 100 µM (inactive) | > 100 µM (inactive) | > 100 µM (inactive) | 85.3 µM (inactive) | > 100 µM (inactive) |  | > 100 µM (inactive) | > 100 µM (inactive) | 66.8 µM (inactive) | > 100 µM (inactive) | > 100 µM (inactive) | > 100 µM (inactive)
Cc1c(/C=N/NC(=S)Nc2ccccc2Cl)c(=O)n(-c2ccccc2)n1C |  | 39.9 µM (inactive) | 13 µM (inactive) | 34.1 µM (inactive) | 43.8 µM (inactive) | 16.1 µM (inactive) | 20.2 µM (inactive) | 43.8 µM (inactive) | 28.1 µM (inactive) | 28.6 µM (inactive) | 11 µM (inactive) | 46.5 µM (inactive) | > 100 µM (inactive) | 29.3 µM (inactive) | 55.3 µM (inactive) | 43 µM (inactive) | 87.3 µM (inactive) | 42.4 µM (inactive) | 15.1 µM (inactive)
Cc1ccc(-c2cc(-c3ccccc3)nc(N)n2)c(O)c1 | > 100 µM (inactive) | > 22.7 µM (inactive) | > 100 µM (inactive) | > 59.2 µM (inactive) | > 100 µM (inactive) | > 100 µM (inactive) | > 100 µM (inactive) | 0.227 µM (active) | 39.4 µM (inactive) | 5.48 µM (inactive) | 3.4 µM (inactive) | 58.1 µM (inactive) | > 28.9 µM (inactive) | 7.46 µM (inactive) |  | > 32.9 µM (inactive) | 4.78 µM (inactive) | > 100 µM (inactive) | > 100 µM (inactive)
Cc1ccc(C(=O)Cc2nc3ncccc3[nH]c2=O)cc1 | 25.7 µM (inactive) | 80 µM (inactive) | 45.5 µM (inactive) | 40.1 µM (inactive) | 41.6 µM (inactive) | 44.2 µM (inactive) | 59 µM (inactive) | 48.5 µM (inactive) | 45.4 µM (inactive) | 30.5 µM (inactive) | > 100 µM (inactive) | 49.9 µM (inactive) | > 100 µM (inactive) | 43.4 µM (inactive) |  | 43.9 µM (inactive) | 74.8 µM (inactive) | 25.7 µM (inactive) | 32.1 µM (inactive)
